Test results from patent US10925858B2, “S-nitrosoglutathione (GSNO) and GSNO reductase inhibitors for use in therapy” (MUSC FOUNDATION FOR RESEARCH DEVELOPMENT, priority 2017, dated 2021).

What was measured:
[1] = system: mononuclear cells; assay: H&E staining, spinal cord infiltration of mononuclear cells in EAE mice; assay type: in vivo, C57BL/6 mice; details: 1 mg/kg/day
Description: (§1) Female C57BL/6 mice of 8-12 weeks of age, purchased from Jackson Laboratory, were provided with food and water ad libitum and were kept in pathogen free animal care facility of Medical University of South Carolina (MUSC) throughout the study. All procedures were conducted in accordance with accepted standards of humane care as approved by the Institutional Animal Care and Use Committee (Approved number: AR #1644). EAE was induced as described previously (Nath et al., 2009). Briefly, mice were immunized subcutaneously in the flank regions with MOG35-55 peptide (MOG; 200 μg; Peptide International) emulsified (1:1) in 100 ul complete Freund's adjuvant (CFA) on day 0 and day 7. Additionally, 300 ng of Pertussis toxin (Sigma-Aldrich, St. Louis, Mo.) was given on day 0 and day 2 by i.p. injection. […] Clinical signs of EAE were scored by examiners blinded to experimental treatments using the following scale: 0=no clinical signs of disease; 1=piloerection and sluggish; 2=limp tail (ataxia); 2.5=ataxia with partial hind limb paralysis; 3=full paralysis of hind limb; 3.5=full paralysis of hind limb with paralysis of one fore limb; 4=full paralysis of two limbs; 4.5=moribund stage; 5=death. […]
Tissue samples were embedded in paraffin block and sectioned transversely (5 μm-thick). […] For the quantitation of infiltrates, the digital images were analyzed by ImageJ (NIH, Bethesda, Md.). […]

[2] = system: CD4+ T cells (TH1, TH2, TH17, Treg); assay: Fluorescence flow cytometry, polarization/expansion of CD4+ T cell subsets in spleens of EAE mice; parameters: species or system C57BL/6 mice; details: EAE mice at peak of disease, ex vivo MOG restimulation
Description: (§2) Female C57BL/6 mice of 8-12 weeks of age, purchased from Jackson Laboratory, were provided with food and water ad libitum and were kept in pathogen free animal care facility of Medical University of South Carolina (MUSC) throughout the study. All procedures were conducted in accordance with accepted standards of humane care as approved by the Institutional Animal Care and Use Committee (Approved number: AR #1644). EAE was induced as described previously (Nath et al., 2009). Briefly, mice were immunized subcutaneously in the flank regions with MOG35-55 peptide (MOG; 200 μg; Peptide International) emulsified (1:1) in 100 ul complete Freund's adjuvant (CFA) on day 0 and day 7. Additionally, 300 ng of Pertussis toxin (Sigma-Aldrich, St. Louis, Mo.) was given on day 0 and day 2 by i.p. injection. Pertussis toxin used as per the standardized protocol reported by us and other investigators for the induction of EAE (Nath et al., 2009). Similarly, healthy control group received subcutaneous injection of PBS and CFA emulsion on day 0 and day 7. Clinical signs of EAE were scored by examiners blinded to experimental treatments using the following scale: 0=no clinical signs of disease; 1=piloerection and sluggish; 2=limp tail (ataxia); 2.5=ataxia with partial hind limb paralysis; 3=full paralysis of hind limb; 3.5=full paralysis of hind limb with paralysis of one fore limb; 4=full paralysis of two limbs; 4.5=moribund stage; 5=death. […] The drug treatments were continued till the termination of the study (day 41 post immunization). EAE animals without drug treatment received PBS. Likewise, healthy controls received vehicle.
Fluorescence flow cytometry analysis for each subset of CD4+ T cells (TH1, TH2, TH17, CD4+CD25+ FOXP3+ Treg, and CD4+CD25+ FOXP3− Treg) were performed based on our previous report with modification (Nath et al., 2004). Briefly, control mice, EAE mice. EAE mice treated with GSNO. […] Following the preparation of single cell suspension, red blood cells were lysed with Pharma lyse buffer (BD Pharmingen™) and the remaining spleen cells were washed with RPMI 1640. The isolated CD4+ T cells were then resuspended with complete RPMI-media in 12-well plates (5×10^6 cells' 2 ml per well) containing MOG peptide (25 μg/ml) for 48 hrs. Following the centrifugation, the resulted supernatants were collected for ELISA for CD4+ subset specific cytokines (see below). The cell pellets were washed with cell staining solution (ebioscience, Waltham, Mass. USA) and stained with fluorescence labeled antibody specific to IFN-γ for TH1. IL-4 for TH2, IL-17 for TH17, CD25+ for total Treg. CD25+ and FOXP3+ for FOXP3+ Treg, and CD25+ and FOXP3− for FOXP3-Tregs (ebioscience, Waltham, Mass., USA). The cells were counted and analyzed using Beackman Coulter instrument (Beckman Coulter, Inc., Brea, Calif., USA).

[3] = system: protein associated S-nitrosothiols; assay: Biotin-switch analysis of protein associated S-nitrosothiols in spleens of EAE mice; assay type: in vivo, C57BL/6 mice; details: vs control and EAE mice
Description: as §1
Protein S-Nitrosylation was detected using the biotin-switch method with slight modification as described in our previous study (Kim et al., 2014). […]

[4] = system: CD4+ T cells (TH1, TH2, TH17, Treg); assay: Fluorescence flow cytometry of CD4+ T cell subsets in spinal cords of EAE mice; assay type: in vivo, C57BL/6 mice; details: EAE mice at peak of disease, 1 mg/kg/day
Description: as §2
Fluorescence flow cytometry analysis for each subset of CD4+ T cells (TH1, TH2, TH17, CD4+CD25+ FOXP3+ Treg, and CD4+CD25+ FOXP3− Treg) were performed based on our previous report with modification (Nath et al., 2004). Briefly, control mice, EAE mice. EAE mice treated with GSNO. […] The isolated CD4+ T cells were then resuspended with complete RPMI-media in 12-well plates (5×10^6 cells' 2 ml per well) containing MOG peptide (25 μg/ml) for 48 hrs. Following the centrifugation, the resulted supernatants were collected for ELISA for CD4+ subset specific cytokines (see below). The cell pellets were washed with cell staining solution (ebioscience, Waltham, Mass. USA) and stained with fluorescence labeled antibody specific to IFN-γ for TH1. IL-4 for TH2, IL-17 for TH17, CD25+ for total Treg. CD25+ and FOXP3+ for FOXP3+ Treg, and CD25+ and FOXP3− for FOXP3-Tregs (ebioscience, Waltham, Mass., USA). The cells were counted and analyzed using Beackman Coulter instrument (Beckman Coulter, Inc., Brea, Calif., USA).

| Structure (SMILES) | spinal cord infiltration of mononuclear cells [1] | polarization/expansion of CD4+CD25+ FOXP3+ Treg cells in spleens [2] | polarization/expansion of CD4+CD25+ FOXP3− Treg cells in spleens [2] | polarization/expansion of TH1 cells in spleens [2] | polarization/expansion of TH17 cells in spleens [2] | polarization/expansion of total Treg cells (CD4+CD25+) in spleens [2] | spleen levels of protein-associated S-nitrosothiols [3] | number of CD4+ IFN-γ+ (TH1) cells in spinal cords [4] | number of CD4+ IL-17 (TH17) cells in spinal cords [4] | number of CD4+CD25+ FOXP3+ Treg cells in spinal cords [4] | number of CD4+CD25+ FOXP3− Treg cells in spinal cords [4] | number of total Treg cells (CD4+CD25+) in spinal cords [4] | TH2 polarization/expansion in spleens [2] | number of TH2 cells in the CNS [4] |
| --- | --- | --- | --- | --- | --- | --- | --- | --- | --- | --- | --- | --- | --- | --- |
| N[C@@H](CCC(=O)N[C@@H](CSN=O)C(=O)NCC(=O)O)C(=O)O [GSNO, S-nitrosoglutathione] | reduced | without altering | significantly increased | no obvious effect | significantly decreased | increased | increased | no obvious effect | significantly decreased | without altering | significantly increased | increased |  |  |
| Cc1cc(C(N)=O)ccc1-n1c(CCC(=O)O)ccc1-c1ccc(-n2ccnc2)cc1 [N6022, reference compound] | significantly reduced | restored | increased | reduced | reduced |  | increased | reduced | reduced | increased | increased |  | fully restored | increased |
